The values below come from PubChem BioAssay (NCI).

Some test systems named below: HOP-92 NSCLC; SN12C renal; NCI-H522 lung; KM12 colon; RPMI-8226 leukemia; MCF7 breast; SF-295 CNS; UACC-62 melanoma; HOP-62 NSCLC; SF-539 CNS.
What all share (test): NCI-60 cell line screen, 48 h

Structures are written as SMILES. Where “and” joins values, the source holds several entries; their conditions need not be identical. Equal values may be shown once.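 Protocol summary: plate cells (96-well), add compound at 5 concentrations, incubate 48 h, interpolate endpoints linearly. At the GI50, growth is halved. At the TGI there is no net growth.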 A value given as a limit tells only on which side of the number the result lay.

On to `COc1ccc(/C(C)=C(\c2ccc(OCCN3CCCCCC3)cc2)c2ccc(OC(=O)C3CCCCC3)cc2)cc1`, for which the GI50 in the experiment on HOP-92 NSCLC is 0.813 µM; with SN12C renal, 1.11 µM; in the experiment with NCI-H522 lung, 2.12 µM; in the experiment on KM12 colon it was 0.854 µM; with RPMI-8226 leukemia, 0.55 µM; in the experiment with MCF7 breast, 0.015 µM. Moreover, the GI50 in the experiment on SF-295 CNS was 0.484 µM; in the experiment on UACC-62 melanoma, 0.892 µM; in the experiment with HOP-62 NSCLC it was 1.89 µM; with SF-539 CNS, 0.833 µM. The TGI with HOP-92 NSCLC came to 2.76 µM; in the experiment with SN12C renal, 3.28 µM; in the experiment with NCI-H522 lung, 5.36 µM; in the experiment on KM12 colon it was 3.27 µM; in the experiment with RPMI-8226 leukemia, 2.23 µM; with MCF7 breast, 2.88 µM. The TGI was 1.8 µM with SF-295 CNS, 2.85 µM in the experiment on UACC-62 melanoma, 4.21 µM in the experiment on HOP-62 NSCLC and 2.74 µM with SF-539 CNS.

On to `COc1ccc(-c2cnnn2-c2nonc2-n2cccc2)cc1`, for which the GI50 in the experiment on HOP-92 NSCLC is 0.437 µM; with SN12C renal, 0.595 µM; with NCI-H522 lung, 0.136 µM; in the experiment on KM12 colon, 0.16 µM; with RPMI-8226 leukemia it was 0.353 µM; in the experiment with MCF7 breast, 0.277 µM. For the same compound, the GI50 in the experiment on SF-295 CNS was 0.246 µM; with UACC-62 melanoma it was 0.529 µM; in the experiment on HOP-62 NSCLC, 0.34 µM; with SF-539 CNS it was 0.321 µM. For the same compound, the TGI with HOP-92 NSCLC was 43.9 µM; with SN12C renal, > 100 µM; in the experiment on NCI-H522 lung, 0.487 µM; with KM12 colon it was 8.53 µM; in the experiment on RPMI-8226 leukemia, 5.02 µM; in the experiment with MCF7 breast it was 60.3 µM. The TGI in the experiment on SF-295 CNS was 6.21 µM; in the experiment with UACC-62 melanoma, 28.2 µM; with HOP-62 NSCLC it was > 83.1 µM; in the experiment on SF-539 CNS it was 4 µM.

`OC(c1cc(-c2ccc(C(F)(F)F)cc2)nc(C(F)(F)F)c1)C1CCCCN1` (stereo unspecified): the GI50 with HOP-92 NSCLC was 1.06 µM and 2.38 µM; with SN12C renal, 1.79 µM and 3.13 µM; in the experiment on RPMI-8226 leukemia, 0.418 µM; with MCF7 breast, 1.61 µM; in the experiment on SF-295 CNS, 1.38 µM and 2.84 µM; with HOP-62 NSCLC, 1.75 µM and 2.13 µM. In the experiment with SF-539 CNS, the GI50 is 1.72 µM and 2.39 µM. Besides, the TGI is 2.47 µM and 9.39 µM in the experiment with HOP-92 NSCLC; 3.19 µM and 7.37 µM with SN12C renal; 3.19 µM and 3.27 µM in the experiment with NCI-H522 lung; 3.13 µM and 3.35 µM in the experiment with KM12 colon; 2.04 µM and 5.07 µM in the experiment on RPMI-8226 leukemia; 3.08 µM and 3.42 µM in the experiment with MCF7 breast. Also, the TGI is 2.7 µM and 6.54 µM in the experiment on SF-295 CNS; 3.02 µM and 3.51 µM in the experiment on UACC-62 melanoma; 3.18 µM and 4.75 µM with HOP-62 NSCLC; 3.12 µM and 4.75 µM in the experiment with SF-539 CNS.

Take `CC(C)CC(C/C=C1/CC(CO)(COC(=O)C(C)(C)C)OC1=O)CC(C)C` (stereo unspecified): the TGI is 18.8 µM with HOP-92 NSCLC; 22.2 µM in the experiment with SN12C renal; 30 µM and 27 µM with NCI-H522 lung; 29.3 µM and 33.2 µM in the experiment with KM12 colon; 54.5 µM and 21.2 µM in the experiment on RPMI-8226 leukemia; 34.2 µM and 40.3 µM with MCF7 breast. Besides, the TGI in the experiment on SF-295 CNS was 36.7 µM and 12.7 µM; in the experiment with UACC-62 melanoma, 28.8 µM and 24.1 µM; in the experiment with HOP-62 NSCLC, 31.7 µM and 20.1 µM; with SF-539 CNS, 21.3 µM. For the same compound, the GI50 in the experiment with KM12 colon is 13.7 µM and 14.8 µM; in the experiment on RPMI-8226 leukemia, 17.1 µM and 3.85 µM; with SF-295 CNS, 12.2 µM and 1.7 µM; in the experiment on HOP-62 NSCLC, 10.8 µM and 1.92 µM.

As for `O=C(Nc1cc(Nc2ncccc2-c2ncnc3nc[nH]c23)ccc1F)c1cc(C(F)(F)F)cc(C(F)(F)F)c1`, the GI50 with HOP-92 NSCLC was 0.891 µM; in the experiment with SN12C renal it was 2.73 µM; with NCI-H522 lung, 2.38 µM; with KM12 colon it was 1.53 µM; in the experiment on RPMI-8226 leukemia, 2.12 µM; in the experiment on MCF7 breast it was 2.65 µM. Also, the GI50 with SF-295 CNS was 1.73 µM; in the experiment with UACC-62 melanoma, 0.38 µM; in the experiment on HOP-62 NSCLC, 1.15 µM; with SF-539 CNS, 1.3 µM. The TGI is 3.92 µM in the experiment on HOP-92 NSCLC; > 10 µM in the experiment with SN12C renal; > 10 µM in the experiment on NCI-H522 lung; 4.03 µM with KM12 colon; 6.4 µM in the experiment with RPMI-8226 leukemia; > 10 µM in the experiment with MCF7 breast. Also, the TGI was 4.01 µM with SF-295 CNS, 2.32 µM in the experiment with UACC-62 melanoma, > 10 µM in the experiment with HOP-62 NSCLC and 3.04 µM in the experiment with SF-539 CNS.

In the case of `CN(C)CCNCCN`, the TGI in the experiment with HOP-92 NSCLC, in the experiment on SN12C renal, in the experiment with NCI-H522 lung, in the experiment on KM12 colon, in the experiment on RPMI-8226 leukemia and in the experiment with MCF7 breast was > 100 µM in each case. Also, the TGI with SF-295 CNS, in the experiment with UACC-62 melanoma, in the experiment with HOP-62 NSCLC and with SF-539 CNS was > 100 µM each time.

On to `N[C@H](CCC(=O)N[C@@H](Cc1c[nH]c2ccccc12)C(=O)O)C(=O)O`, for which the GI50 in the experiment with HOP-92 NSCLC, in the experiment with SN12C renal, in the experiment on NCI-H522 lung, in the experiment with KM12 colon, in the experiment on RPMI-8226 leukemia and with MCF7 breast was > 100 µM each time. The GI50 in the experiment on SF-295 CNS, in the experiment on UACC-62 melanoma, with HOP-62 NSCLC and in the experiment with SF-539 CNS was > 100 µM each time. The TGI in the experiment with HOP-92 NSCLC, in the experiment on SN12C renal, in the experiment on NCI-H522 lung, with KM12 colon, with RPMI-8226 leukemia and with MCF7 breast was > 100 µM in each case. Besides, the TGI with SF-295 CNS, in the experiment with UACC-62 melanoma, in the experiment on HOP-62 NSCLC and in the experiment with SF-539 CNS was > 100 µM each time.
